From patent US5980914A (priority 1997, dated 1999)
Entries after “also recorded” stand apart in the source; their conditions may differ.

What was measured:
[1] = in vivo; cited from earlier work
[2] = mass spectrophotometry; cited from earlier work
Heliocobacter pylori = conditions: in vivo; cited from earlier work
[3] = monkeys, microautoradiographic techniques; terminal axodendritic boutons of the mossy fibres; cited from earlier work
neurotoxic injury = conditions: in vivo; cited from earlier work
[4] = mass spectrophotometry; cited from earlier work; remark: listed apart in the source
[5] = cited from earlier work
[6] = unconjugated clioquinol, injected intravenously; crosses the blood-brain-barrier; cited from earlier work
[7] = test system: vitamin B12 ([^57 Co]-cyanocobalamine) metabolism; test: Influence of clioquinol on vitamin B12 in vivo: [57Co]-cyanocobalamine radioactivity in dissected tissues; parameters: species or system mice
Description: After three days, all of the mice were injected with [^57 Co]-cyanocobalamine. After two days, the animals were sacrificed, and the brain, liver and kidney were dissected and counted in a gamma-counter as thousand cpm/g tissue (wet weight)±SEM. The radioactivities in each of the groups are stated in Table 1 below: […]

[8] = mass spectrophotometry; cited from earlier work; remark: listed apart in the source
[9] = mass spectrophotometry; cited from earlier work; remark: listed apart in the source
[10] = Solubility in water / aqueous solutions; type: physicochemical; conditions: water / aqueous solutions for NMR testing
Description: (§1) The mixture was analyzed by ^1 H NMR.
(§2) Three different solutions were prepared and their ^1 H NMR spectra were recorded in a DRX 400 MHz spectrophotometer at 20° C. Solution a) contained free vitamin B12 (hydroxycobalamin) in a concentration of 2.6 mM.

[11] = mass spectrophotometry; cited from earlier work; remark: listed apart in the source
[12] = 1H NMR interaction of vitamin B12 with clioquinol glucuronide; type: binding
Description: FIG. 1 depicts the NMR spectra of three solutions. Solution a contained vitamin B12 (hydroxycobalamin), at a concentration of 2.6 mM.
as §1, §2

Row | Structure (SMILES) | excretion [1] | coordination number for Ni(II) [2] | effect in the treatment of Heliocobacter pylori (Heliocobacter pylori) | zinc chelates in the hippocampus [3] | effect in the treatment of neurotoxic injury (neurotoxic injury) | coordination number for Co(II) [4] | concentration in areas of the brain such as the hippocampus, in words [5] | penetration into the nervous system [6] | radioactivity, Brain ([7]; brain, clioquinol 50 mg/kg/day, [57Co]-cyanocobalamine after three days, sacrificed after two days, ±SEM, control 9.4 ± 0.9) | amount of vitamin B12 trapped in the kidneys, in words ([7]; kidney, versus control) | radioactivity, Kidney ([7]; kidney, clioquinol 50 mg/kg/day, [57Co]-cyanocobalamine after three days, sacrificed after two days, ±SEM, control 895 ± 207) | radioactivity, Liver ([7]; liver, clioquinol 50 mg/kg/day, [57Co]-cyanocobalamine after three days, sacrificed after two days, ±SEM, control 97 ± 8) | coordination number for Fe(III) [8] | coordination number for Cu(II) [9] | solubility in water [10] | coordination number for Zn(II) [11] | shift of resonances in the mixture ([12]; aromatic region, benzimidazole moiety (vitamin B12), quinoline moiety (clioquinol glucuronide)) | interaction between clioquinol glucuronide and vitamin B12 ([12]; buffered water pH 6.5, 20° C, 2.6 mM vitamin B12 + 10 mM clioquinol glucuronide)
1 | Oc1c(I)cc(Cl)c2cccnc12 [Clioquinol, 5-chloro-7-iodo-8 hydroxyquinoline] | excreted through the kidneys as glucuronide or sulfate derivatives; also recorded: excreted through the kidneys as glucuronide derivatives | 2 | effective | form zinc chelates in the hippocampus | effective | 2 | high | extremely rapid penetration into the nervous system | 8.4 ± 1.5 thousand cpm/g tissue (wet wei | decreased in the kidney; also recorded: A reduction in the amount of vitamin B12 trapped in the kidneys | 252 ± 61 thousand cpm/g tissue (wet wei | 85 ± 21 thousand cpm/g tissue (wet wei | 3 | 2 | cannot be dissolved in aqueous solutions | 2 |  | 
2 | COC(=O)[C@H]1OC(Oc2c(I)cc(Cl)c3cccnc23)[C@H](OC(C)=O)[C@@H](OC(C)=O)[C@@H]1OC(C)=O (stereo partly shown) [clioquinol glucuronide, methyl(5-chloro-7-iodo-quinolyl-2',3',4'-tri-O-acetyl-glycopyranosid)uronate] |  |  |  |  |  |  |  |  |  |  |  |  |  |  | soluble in water |  | the same is observed for two resonances of the clioquinol glucuronide | hydrophobic interaction between clioquinol glucuronide and vitamin B12; also recorded: vitamin B12 binds to clioquinol glucuronide
